pIC50: −log10 of the molar value.
How the values were obtained:
Format in all cases: biochemical
[1] = biological target: Pim-2 (Homo sapiens (Human), UniProt Q9P1W9); experiment: Pim-2 kinase assay; settings: 1 mM ATP; read-out: PIM2 IC50
In short: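 TR-FRET assay with 1 nM enzyme, 0.05 μM fluorescein-CREBtide and 1 mM ATP in Tris pH 7.5 buffer with MgCl2, DTT, BSA and Tween-20, run 2 h at 25° C. Stopped with EDTA and Tb-labelled anti-CREB pSer133 antibody, then read after 30 min at room temperature.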

[2] = biological target: Pim-1 (Homo sapiens (Human), UniProt P11309); experiment: Pim-1 kinase assay; settings: 1 mM ATP; read-out: PIM1 IC50
Chain of Pim-1 (P11309 whole entry): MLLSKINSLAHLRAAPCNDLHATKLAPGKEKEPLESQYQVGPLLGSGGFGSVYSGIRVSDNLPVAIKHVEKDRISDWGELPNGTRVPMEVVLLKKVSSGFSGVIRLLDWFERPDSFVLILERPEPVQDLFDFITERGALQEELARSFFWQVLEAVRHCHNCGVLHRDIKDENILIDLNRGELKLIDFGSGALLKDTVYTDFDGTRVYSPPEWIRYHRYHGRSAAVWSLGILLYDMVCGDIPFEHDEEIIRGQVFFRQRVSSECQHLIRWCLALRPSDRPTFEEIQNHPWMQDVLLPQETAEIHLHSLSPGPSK
In short: (§1)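 Enzyme at 2.5 pM (Pim-1) or 1.25 pM (Pim-3) reacted 1 h at 25° C with 1 mM ATP and 0.05 μM biotinylated BAD peptide, pH 7.5. Phospho-Ser112 BAD detected by antibody/Protein-A acceptor and streptavidin donor bead proximity signal after EDTA quench and 1 h dark incubation.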

[3] = biological target: Pim-3 (Homo sapiens (Human), UniProt Q86V86); experiment: Pim-3 kinase assay; settings: 1 mM ATP; read-out: PIM3 IC50
In short: as §1

Chain of Pim-2 (Q9P1W9 whole entry): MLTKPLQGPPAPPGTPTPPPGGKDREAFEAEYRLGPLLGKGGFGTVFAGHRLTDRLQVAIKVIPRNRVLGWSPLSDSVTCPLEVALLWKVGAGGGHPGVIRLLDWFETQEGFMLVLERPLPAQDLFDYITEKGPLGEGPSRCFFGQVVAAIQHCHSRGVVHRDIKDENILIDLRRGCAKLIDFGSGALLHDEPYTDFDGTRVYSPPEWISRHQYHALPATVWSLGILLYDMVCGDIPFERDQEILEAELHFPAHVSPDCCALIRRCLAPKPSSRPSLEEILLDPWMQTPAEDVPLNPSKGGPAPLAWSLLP

## CCC1CCCCN1c1cnc2c(C(=O)Nc3cnccc3[C@@H]3C[C@H](C)C[C@H](N)C3)ccc(F)c2c1 (stereo partly drawn) [Example 57, N-(4-((1R,3S,5S)-3-Amino-5-methylcyclohexyl)pyridin-3-yl)-3-(2-ethylpiperidin-1-yl)-5-fluoroquinoline-8-carboxamide]
[1]
  pIC50: ≥ 7.00
[2]
  pIC50: ≥ 8.00
[3]
  pIC50: 7.30 to 8.00

## C[C@@H]1C[C@H](N)C[C@H](c2ccncc2NC(=O)c2ccc(F)c3cc(NCC(F)F)cnc23)C1 [Example 27, N-{4-[(1R,3S,5S)-3-Amino-5-methylcyclohexyl]pyridin-3-yl}-3-[(2,2-difluoroethyl)amino]-5-fluoroquinoline-8-carboxamide]
[1]
  pIC50: ≥ 7.00
[2]
  pIC50: ≥ 8.00
[3]
  pIC50: ≥ 8.00

## C[C@@H]1C[C@H](N)C[C@H](c2ccncc2NC(=O)c2ccc(F)c3cc(-c4cc(F)cc5cccnc45)cnc23)C1 [Example 59, N-(4-((1R,3S,5S)-3-Amino-5-methylcyclohexyl)pyridin-3-yl)-5,6′-difluoro-3,8′-biquinoline-8-carboxamide]
[1]
  pIC50: 5.00 to 6.00
[2]
  pIC50: ≥ 8.00
[3]
  pIC50: 7.30 to 8.00

## C[C@@H]1C[C@H](N)C[C@H](c2ccncc2NC(=O)c2ccc(F)c3cc(-c4ccccc4C#N)cnc23)C1 [Example 17, N-{4-[(1R,3S,5S)-3-Amino-5-methylcyclohexyl]pyridin-3-yl}-3-(2-cyanophenyl)-5-fluoroquinoline-8-carboxamide]
[1]
  pIC50: 6.00 to 7.00
[2]
  pIC50: ≥ 8.00
[3]
  pIC50: ≥ 8.00

## CC(C)N1CCN(c2cnc3c(C(=O)Nc4cnccc4[C@@H]4C[C@H](C)C[C@H](N)C4)ccc(F)c3c2)CC1=O [Example 115, N-(4-((1R,3S,5S)-3-Amino-5-methylcyclohexyl)pyridin-3-yl)-5-fluoro-3-(4-isopropyl-3-oxopiperazin-1-yl)quinoline-8-carboxamide]
[1]
  pIC50: ≥ 7.00
[2]
  pIC50: ≥ 8.00
[3]
  pIC50: ≥ 8.00

## CCOC(=O)N1CCN(c2cnc3c(C(=O)Nc4cnccc4[C@@H]4C[C@H](C)C[C@H](N)C4)ccc(F)c3c2)CC1 [Example 168, Ethyl 4-(8-(4-((1R,3S,5S)-3-amino-5-methylcyclohexyl)pyridin-3-ylcarbamoyl)-5-fluoroquinolin-3-yl)piperazine-1-carboxylate]
[1]
  pIC50: 6.00 to 7.00
[2]
  pIC50: ≥ 8.00
[3]
  pIC50: ≥ 8.00

## C[C@@H]1C[C@H](N)C[C@H](c2ccncc2NC(=O)c2ccc(F)c3cc(N4CCCc5cccc(F)c54)cnc23)C1 [Example 137, N-(4-((1R,3S,5S)-3-Amino-5-methylcyclohexyl)pyridin-3-yl)-5′,8-difluoro-3,4-dihydro-2H-1,3′-biquinoline-8′-carboxamide]
[1]
  pIC50: ≥ 7.00
[2]
  pIC50: ≥ 8.00
[3]
  pIC50: ≥ 8.00

## C[C@@H]1C[C@H](N)C[C@H](c2ccncc2NC(=O)c2ccc(F)c3cc(N4C5CCCC4COC5)cnc23)C1 [Example 106, N-(4-((1R,3S,5S)-3-Amino-5-methylcyclohexyl)pyridin-3-yl)-3-(3-oxa-9-azabicyclo[3.3.1]nonan-9-yl)-5-fluoroquinoline-8-carboxamide]
[1]
  pIC50: ≥ 7.00
[2]
  pIC50: ≥ 8.00
[3]
  pIC50: ≥ 8.00

## C[C@@H]1C[C@H](N)C[C@H](c2ccncc2NC(=O)c2ccc(F)c3cc(N4CCc5nn(C)cc5C4)cnc23)C1 [Example 119, N-(4-((1R,3S,5S)-3-Amino-5-methylcyclohexyl)pyridin-3-yl)-5-fluoro-3-(2-methyl-6,7-dihydro-2H-pyrazolo[4,3-c]pyridin-5(4H)-yl)quinoline-8-carboxamide]
[1]
  pIC50: ≥ 7.00
[2]
  pIC50: ≥ 8.00
[3]
  pIC50: ≥ 8.00

## C[C@@H]1C[C@H](N)C[C@H](c2ccncc2NC(=O)c2ccc(F)c3cc(N4CCOCC4)cnc23)C1 [Example 10, N-{4-[(1R,3S,5S)-3-Amino-5-methylcyclohexyl]pyridin-3-yl}-5-fluoro-3-morpholin-4-ylquinoline-8-carboxamide]
[1]
  pIC50: 6.00 to 7.00
[2]
  pIC50: ≥ 8.00
[3]
  pIC50: ≥ 8.00

## CC1CCCCN1c1cnc2c(C(=O)Nc3cnccc3[C@@H]3C[C@H](C)C[C@H](N)C3)ccc(F)c2c1 (stereo partly drawn) [Example 43, N-(4-((1R,3S,5S)-3-Amino-5-methylcyclohexyl)pyridin-3-yl)-5-fluoro-3-(2-methylpiperidin-1-yl)quinoline-8-carboxamide]
[1]
  pIC50: ≥ 7.00
[2]
  pIC50: ≥ 8.00
[3]
  pIC50: ≥ 8.00

## C[C@@H]1C[C@H](N)C[C@H](c2ccncc2NC(=O)c2ccc(F)c3cc(N4CCOC[C@H]4C)nnc23)C1 [Example 94, N-{4-[(1R,3S,5S)-3-Amino-5-methylcyclohexyl]pyridin-3-yl}-5-fluoro-3-[(3R)-3-methylmorpholin-4-yl]cinnoline-8-carboxamide]
[1]
  pIC50: ≥ 7.00
[2]
  pIC50: ≥ 8.00
[3]
  pIC50: ≥ 8.00

## C[C@@H]1C[C@H](N)C[C@H](c2ccncc2NC(=O)c2ccc(F)c3cc(N4CC[C@@H]4C)cnc23)C1 [Example 166, N-(4-((1R,3S,5S)-3-Amino-5-methylcyclohexyl)pyridin-3-yl)-5-fluoro-3-((S)-2-methylazetidin-1-yl)quinoline-8-carboxamide]
[1]
  pIC50: ≥ 7.00
[2]
  pIC50: ≥ 8.00
[3]
  pIC50: ≥ 8.00

## CC1CCC1N(C)c1cnc2c(C(=O)Nc3cnccc3[C@@H]3C[C@H](C)C[C@H](N)C3)ccc(F)c2c1 (stereo partly drawn) [Example 147, N-(4-((1R,3S,5S)-3-Amino-5-methylcyclohexyl)pyridin-3-yl)-5-fluoro-3-(methyl(2-methylcyclobutyl)amino)quinoline-8-carboxamide]
[1]
  pIC50: ≥ 7.00
[2]
  pIC50: ≥ 8.00
[3]
  pIC50: ≥ 8.00

## C[C@@H]1C[C@H](N)C[C@H](c2ccncc2NC(=O)c2ccc(F)c3cc(N4CC(F)C4)cnc23)C1 [Example 9, N-{4-[(1R,3S,5S)-3-Amino-5-methylcyclohexyl]pyridin-3-yl}-5-fluoro-3-(3-fluoroazetidin-1-yl)quinoline-8-carboxamide]
[1]
  pIC50: 6.00 to 7.00
[2]
  pIC50: ≥ 8.00
[3]
  pIC50: ≥ 8.00

## CO[C@@H]1CCN(c2cnc3c(C(=O)Nc4cnccc4[C@@H]4C[C@H](C)C[C@H](N)C4)ccc(F)c3c2)[C@H](C)C1 [Example 161, N-(4-((1R,3S,5S)-3-Amino-5-methylcyclohexyl)pyridin-3-yl)-5-fluoro-3-((2R,4R)-4-methoxy-2-methylpiperidin-1-yl)quinoline-8-carboxamide]
[1]
  pIC50: ≥ 7.00
[2]
  pIC50: ≥ 8.00
[3]
  pIC50: ≥ 8.00

## C[C@@H]1C[C@H](N)C[C@H](c2ccncc2NC(=O)c2ccc(F)c3cc(N4CC5CCC4C5)cnc23)C1 (stereo partly drawn) [Example 96, N-(4-((1R,3S,5S)-3-Amino-5-methylcyclohexyl)pyridin-3-yl)-3-(2-azabicyclo[2.2.1]heptan-2-yl)-5-fluoroquinoline-8-carboxamide]
[1]
  pIC50: ≥ 7.00
[2]
  pIC50: ≥ 8.00
[3]
  pIC50: ≥ 8.00

## C[C@@H]1C[C@H](N)C[C@H](c2ccncc2NC(=O)c2ccc(F)c3cc(-c4cn[nH]c4)cnc23)C1 [Example 66, N-(4-((1R,3S,5S)-3-amino-5-methylcyclohexyl)pyridin-3-yl)-5-fluoro-3-(1H-pyrazol-4-yl)quinoline-8-carboxamide]
[1]
  pIC50: 6.00 to 7.00
[2]
  pIC50: ≥ 8.00
[3]
  pIC50: ≥ 8.00

## C[C@@H]1C[C@H](N)C[C@H](c2ccncc2NC(=O)c2ccc(F)c3cc(N4CCC[C@H](C)C4)cnc23)C1 [Example 113, N-(4-((1R,3S,5S)-3-Amino-5-methylcyclohexyl)pyridin-3-yl)-5-fluoro-3-((S)-3-methylpiperidin-1-yl)quinoline-8-carboxamide]
[1]
  pIC50: ≥ 7.00
[2]
  pIC50: ≥ 8.00
[3]
  pIC50: ≥ 8.00

## C[C@@H]1C[C@H](N)C[C@H](c2ccncc2NC(=O)c2ccc(F)c3cc(N4CCOc5cccc(F)c54)cnc23)C1 [Example 120, N-(4-((1R,3S,5S)-3-Amino-5-methylcyclohexyl)pyridin-3-yl)-5-fluoro-3-(5-fluoro-2H-benzo[b][1,4]oxazin-4(3H)-yl)quinoline-8-carboxamide]
[1]
  pIC50: ≥ 7.00
[2]
  pIC50: ≥ 8.00
[3]
  pIC50: ≥ 8.00

## C[C@@H]1C[C@H](N)C[C@H](c2ccncc2NC(=O)c2ccc(F)c3cc(N4CCC[C@@H]4C)cnc23)C1 [Example 39, N-(4-((1R,3S,5S)-3-Amino-5-methylcyclohexyl)pyridin-3-yl)-5-fluoro-3-((S)-2-methylpyrrolidin-1-yl)quinoline-8-carboxamide]
[1]
  pIC50: ≥ 7.00
[2]
  pIC50: ≥ 8.00
[3]
  pIC50: 7.30 to 8.00

## C[C@@H]1C[C@H](N)C[C@H](c2ccncc2NC(=O)c2ccc(F)c3cc(N4CCC[C@@H](F)C4)cnc23)C1 [Example 2, N-{4-[(1R,3S,5S)-3-Amino-5-methylcyclohexyl]pyridin-3-yl}-5-fluoro-3-[(3,R)-3-fluoropiperidin-1-yl]quinoline-8-carboxamide]
[1]
  pIC50: ≥ 7.00
[2]
  pIC50: ≥ 8.00
[3]
  pIC50: ≥ 8.00

## C[C@@H]1C[C@H](N)C[C@H](c2ccncc2NC(=O)c2ccc(F)c3cc(N4CCN(S(C)(=O)=O)C[C@H]4C)cnc23)C1 [Example 86, N-(4-((1R,3S,5S)-3-Amino-5-methylcyclohexyl)pyridin-3-yl)-5-fluoro-3-((R)-2-methyl-4-(methylsulfonyl)piperazin-1-yl)quinoline-8-carboxamide]
[1]
  pIC50: ≥ 7.00
[2]
  pIC50: ≥ 8.00
[3]
  pIC50: ≥ 8.00

## CO[C@H]1CCCN(c2cnc3c(C(=O)Nc4cnccc4[C@@H]4C[C@H](C)C[C@H](N)C4)ccc(F)c3c2)C1 [Example 11, N-{4-[(1R,3S,5S)-3-Amino-5-methylcyclohexyl]pyridin-3-yl}-5-fluoro-3-[(38)-3-methoxypiperidin-1-yl]quinoline-8-carboxamide]
[1]
  pIC50: 6.00 to 7.00
[2]
  pIC50: ≥ 8.00
[3]
  pIC50: ≥ 8.00

Reference: US9920032B2, “Heterocyclic compounds useful as pim kinase inhibitors” (Incyte Corporation, priority 2015, dated 2018)
